The source of these data is patent US20140120087A1, “TRIAZOLOPYRIDINES” (BAYER INTELLECTUAL PROPERTY GMBH, priority 2011, published 2014).

SMILES strings stand for the structures.

Experiment [1] concerns the target T1, Mps-1 kinase (Homo sapiens, UniProt P33981).
T1 sequence (P33981 1-857): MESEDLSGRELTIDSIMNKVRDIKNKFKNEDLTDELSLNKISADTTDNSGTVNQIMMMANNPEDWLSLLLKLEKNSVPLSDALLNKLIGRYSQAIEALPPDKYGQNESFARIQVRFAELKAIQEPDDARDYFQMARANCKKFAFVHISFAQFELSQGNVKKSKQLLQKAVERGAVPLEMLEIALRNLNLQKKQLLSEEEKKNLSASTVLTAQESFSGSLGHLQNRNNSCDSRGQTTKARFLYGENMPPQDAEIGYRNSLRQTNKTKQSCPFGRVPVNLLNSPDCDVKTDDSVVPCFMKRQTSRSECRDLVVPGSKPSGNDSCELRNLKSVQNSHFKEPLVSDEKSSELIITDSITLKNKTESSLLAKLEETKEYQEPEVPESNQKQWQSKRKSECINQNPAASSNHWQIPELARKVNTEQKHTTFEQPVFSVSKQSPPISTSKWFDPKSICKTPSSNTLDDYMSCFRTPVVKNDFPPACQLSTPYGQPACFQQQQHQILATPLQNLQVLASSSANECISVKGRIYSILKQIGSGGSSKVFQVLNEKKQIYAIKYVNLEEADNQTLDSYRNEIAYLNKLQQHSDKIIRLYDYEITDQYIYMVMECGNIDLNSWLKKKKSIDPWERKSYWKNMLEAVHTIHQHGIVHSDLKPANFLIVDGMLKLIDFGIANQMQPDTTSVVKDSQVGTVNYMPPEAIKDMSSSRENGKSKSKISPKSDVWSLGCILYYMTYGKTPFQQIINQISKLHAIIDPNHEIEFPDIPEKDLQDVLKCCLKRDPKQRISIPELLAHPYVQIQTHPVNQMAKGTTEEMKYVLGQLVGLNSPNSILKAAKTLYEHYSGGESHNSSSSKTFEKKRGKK
As to the kind of experiment: Mps-1 kinase assay with 2 mM ATP (TR-FRET). (TR-FRET usually uses a lanthanide donor and a delayed reading to cut background.)

Experiment [2] deals with T1, Mps-1 kinase. As to the kind of experiment: Mps-1 kinase assay with 10 μM ATP (TR-FRET).

By IC50 is commonly meant the concentration that inhibits the measured activity by half. A higher IC50 goes with weaker potency in that assay. Consider `O=C(NCc1ccc(F)cc1)c1ccc(-c2ccc3nc(Nc4ccc(F)cc4OC(F)F)nn3c2)cc1` [Example 12.63, 4-(2-{[2-(difluoromethoxy)-4-fluorophenyl]amino}-[1,2,4]triazolo[1,5-a]pyridin-6-yl)-N-(4-fluoro-benzyl)benzamide], for which the half-maximal inhibitory concentration (IC50) was 26 nM in experiment [1] and at most 1 nM in experiment [2].
For `COc1ccc(Nc2nc3ccc(-c4ccc(C(=O)NCc5ccc(F)cc5)cc4)cn3n2)c(C)c1` [Example 12.71, N-(4-fluorobenzyl)-4-{2-[(4-methoxy-2-methylphenyl)-amino][1,2,4]triazolo[1,5-a]pyridin-6-yl}benzamide], in that order: 8.8 nM and at most 1 nM.
For `Cc1cc(C(=O)NCC(F)(F)F)ccc1Nc1nc2ccc(-c3ccc(NC(=O)Cc4ccc(F)cc4)cc3)cn2n1` [Example 12.29, 4-{[6-(4-{[(4-fluorophenyl)-acetyl]amino}phenyl)[1,2,4]triazolo[1,5-a]pyridin-2-yl]amino}-3-methyl-N-(2,2,2-trifluoroethyl)-benzamide], the half-maximal inhibitory concentration (IC50) in experiment [1] was 2.3 nM; in experiment [2], at most 1 nM.
For `Cc1cc(C(=O)NCCF)ccc1Nc1nc2ccc(-c3ccc(NC(=O)Cc4ccc(F)cc4)cc3)cn2n1` [Example 12.30, N-(2-fluoroethyl)-4-{[6-(4-{[(4-fluorophenyl)acetyl]-amino}phenyl)[1,2,4]-triazolo[1,5-a]pyridin-2-yl]amino}-3-methyl-benzamide], in that order: 4.3 nM and at most 1 nM.
For `Cc1cc(S(C)(=O)=O)ccc1Nc1nc2ccc(-c3ccc(NC(=O)Cc4ccc(F)cc4)cc3)cn2n1` [Example 12.32, 2-(4-fluorophenyl)-N-[4-(2-{[2-methyl-4-(methyl-sulfonyl)phenyl]amino}-[1,2,4]triazolo[1,5-a]pyridin-6-yl)phenyl]acetamide] the same measures were 2.2 nM and at most 1 nM.
For `CCN(C)C(=O)c1ccc(Nc2nc3ccc(-c4ccc(NC(=O)Cc5ccc(F)cc5)cc4)cn3n2)c(OC)c1` [Example 12.06, N-ethyl-4-{[6-(4-{[(4-fluorophenyl)acetyl]amino}-phenyl)[1,2,4]triazolo[1,5-a]pyridin-2-yl]amino}-3-methoxy-N-methyl-benzamide], in that order: at most 1 nM and at most 1 nM.
As for `CS(=O)(=O)c1ccc(Nc2nc3ccc(-c4ccc(NC(=O)Cc5ccc(F)cc5)cc4)cn3n2)c(F)c1` [Example 12.39, N-[4-(2-{[2-fluoro-4-(methylsulfonyl)phenyl]-amino}[1,2,4]triazolo[1,5-a]pyridin-6-yl)phenyl]-2-(4-fluorophenyl)acetamide], the IC50 in experiment [1] was 16 nM; in experiment [2], at most 1 nM.
For `O=C(Cc1ccc(F)cc1)Nc1ccc(-c2ccc3nc(Nc4ccc(F)cc4OC(F)F)nn3c2)cc1` [Example 12.27, N-[4-(2-{[2-(difluoro-methoxy)-4-fluorophenyl]-amino}[1,2,4]triazolo[1,5-a]pyridin-6-yl)phenyl]-2-(4-fluorophenyl)acetamide], in that order: 9 nM and at most 1 nM.
Consider `CCOc1cc(S(C)(=O)=O)ccc1Nc1nc2ccc(-c3ccc(C(=O)NCc4ccc(F)cc4)cc3)cn2n1` [Example 02.25, 4-(2-{[2-ethoxy-4-(methylsulfonyl)phenyl]amino}[1,2,4]triazolo[1,5-α]-pyridin-6-yl)-N-(4-fluorobenzyl)benzamide], for which the values for the IC50 in experiment [1] and in experiment [2] were 3.3 nM and at most 1 nM, respectively.
For `Cc1ccc(CNC(=O)c2ccc(-c3ccc4nc(Nc5ccc([S@@+](C)[O-])cc5C)nn4c3)cc2)cc1` (stereo in doubt) [Example 12.78, N-(4-methylbenzyl)-4-(2-{[2-methyl-4-(methylsulfinyl)-phenyl]amino}[1,2,4]triazolo [1,5-a]pyridin-6-yl)-benzamide], in that order: 7.6 nM and at most 1 nM.
On to `NC(=O)c1ccc(Nc2nc3ccc(-c4ccc(C(=O)NCc5ccc(F)cc5)cc4)cn3n2)c(OC(F)(F)F)c1` [Example 12.60, 4-[(6-{4-[(4-fluorobenzyl)-carbamoyl]phenyl}[1,2,4]triazolo [1,5-K]pyridin-2-yl)-amino]-3-(trifluoro-methoxy)benzamide], for which the IC50 was 5 nM in experiment [1] and at most 1 nM in experiment [2].
For `CCOc1cc(C(=O)NCCN(C)C)ccc1Nc1nc2ccc(-c3ccc(NC(=O)Cc4ccc(F)cc4)cc3)cn2n1` [Example 12.20, N-[2-(dimethylamino)ethyl]-3-ethoxy-4-{[6-(4-{[(4-fluorophenyl)acetyl]amino}-phenyl)[1,2,4]triazolo[1,5-a]pyridin-2-yl]amino}-benzamide], in that order: at most 1 nM and at most 1 nM.
For `O=C(NCCF)c1ccc(Nc2nc3ccc(-c4ccc(C(=O)NCc5ccc(F)cc5)cc4)cn3n2)c(OCC(F)(F)F)c1` [Example 12.59, 4-[(6-{4-[(4-fluorobenzyl)-carbamoyl]phenyl}[1,2,4]triazolo [1,5-a]pyridin-2-yl)-amino]-N-(2-fluoroethyl)-3-(2,2,2-trifluoroethoxy)-benzamide] the same measures were at most 1 nM and at most 1 nM.
For `COc1cc(C(C)(C)O)ccc1Nc1nc2ccc(-c3ccc(C(=O)NCc4ccc(F)cc4)cc3)cn2n1` [Example 12.54, N-(4-fluorobenzyl)-4-(2-{[4-(2-hydroxypropan-2-yl)-2-methoxyphenyl]amino}-[1,2,4]triazolo[1,5-a]pyridin-6-yl)benzamide], in that order: 1.1 nM and at most 1 nM.
In the case of `COc1cc(S(=O)(=O)NC(C)(C)C)ccc1Nc1nc2ccc(-c3ccc(NC(=O)Cc4ccc(F)cc4)cc3)cn2n1` [Example 12.15, N-[4-(2-{[4-(tert-butyl-sulfamoyl)-2-methoxy-phenyl]amino}[1,2,4]-triazolo[1,5-a]pyridin-6-yl)phenyl]-2-(4-fluoro-phenyl)acetamide], the concentration for half-maximal inhibition (IC50) in experiment [1] was 1.6 nM; in experiment [2] it was at most 1 nM.
For `COc1cc(C(=O)NCCF)ccc1Nc1nc2ccc(-c3ccc(C(=O)NCc4ccc(F)cc4)cc3)cn2n1` [Example 12.45, 4-[(6-{4-[(4-fluorobenzyl)-carbamoyl]phenyl}[1,2,4]triazolo [1,5-a]pyridin-2-yl)-amino]-N-(2-fluoroethyl)-3-methoxybenzamide] the same measures were 1.4 nM and at most 1 nM.
For `COc1cc(C(=O)NCC(F)(F)F)ccc1Nc1nc2ccc(-c3ccc(NC(=O)Cc4ccc(F)cc4)cc3)cn2n1` [Example 01.31, 4-{[6-(4-{[(4-fluorophenyl)acetyl]amino}phenyl)[1,2,4]triazolo[1,5-α]-pyridin-2-yl]amino}-3-methoxy-N-(2,2,2-trifluoroethyl)benzamide], in that order: 5 nM and at most 1 nM.
For `Cc1ccc(CNC(=O)c2ccc(-c3ccc4nc(Nc5ccc(S(C)(=O)=O)cc5C)nn4c3)cc2)cc1` [Example 12.77, N-(4-methylbenzyl)-4-(2-{[2-methyl-4-(methylsulfonyl)-phenyl]amino}[1,2,4]triazolo [1,5-a]pyridin-6-yl)-benzamide] the same measures were 11 nM and at most 1 nM.
As for `Cc1cc(S(C)(=O)=O)ccc1Nc1nc2ccc(-c3ccc(C(=O)NCc4ccc(Cl)cc4)cc3)cn2n1` [Example 12.74, N-(4-chlorobenzyl)-4-(2-{[2-methyl-4-(methylsulfonyl)-phenyl]amino}[1,2,4]triazolo [1,5-a]pyridin-6-yl)-benzamide], the IC50 was 16 nM in experiment [1] and at most 1 nM in experiment [2].
For `Cc1cc(C(=O)N(C)C)ccc1Nc1nc2ccc(-c3ccc(NC(=O)Cc4ccc(F)cc4)cc3)cn2n1` [Example 12.31, 4-{[6-(4-{[(4-fluorophenyl)-acetyl]amino}phenyl)[1,2,4]triazolo[1,5-a]pyridin-2-yl]amino}-N,N,3-trimethyl-benzamide], in that order: 3.8 nM and at most 1 nM.
As to `COc1cc(C(=O)NCCCF)ccc1Nc1nc2ccc(-c3ccc(C(=O)NCc4ccc(F)cc4)cc3)cn2n1` [Example 12.50, 4-[(6-{4-[(4-fluorobenzyl)-carbamoyl]phenyl}[1,2,4]triazolo [1,5-a]pyridin-2-yl)-amino]-N-(3-fluoropropyl)-3-methoxybenzamide], the 50% inhibitory concentration (IC50) in experiment [1] is 3.1 nM; in experiment [2], at most 1 nM.
For `COc1cc(S(=O)(=O)NC(C)(C)C)ccc1Nc1nc2ccc(-c3ccc(C(=O)NCc4ccc(F)cc4)cc3)cn2n1` [Example 12.52, 4-(2-{[4-(tert-butyl-sulfamoyl)-2-methoxy-phenyl]amino}[1,2,4]-triazolo[1,5-a]pyridin-6-yl)-N-(4-fluorobenzyl)-benzamide], in that order: 14 nM and at most 1 nM.
